These results are taken from article PMC4542628, “Lys39-Lysophosphatidate Carbonyl Oxygen Interaction Locks LPA1 N-terminal Cap to the Orthosteric Site and partners Arg124 During Receptor Activation” (Scientific Reports, 2015).

One test has as its target T1, LPA1 K7.36A mutant (Homo sapiens, UniProt Q92633, K294A).
T1 construct: expressed in transfected cells; host or cells: B103 rat neuroblastoma cells, electroporated with pCAGGS-HA-LPA1 mutant
Kind of test: Intracellular calcium mobilization in B103 cells expressing K7.36A LPA1 mutant. It is filed as cell-based. The settings on record: at the highest concentration tested. The source says: (§1) PCXN2.1-LPA1, an expression vector for human LPA1, was kindly provided by Dr. T. Shimizu (NCGM, Tokyo) (40). The mutants of LPA1 (Lys39Ala, Arg115Ala, Arg124Ala, Asp191Ala and Lys294Ala) were generated by a two-step PCR. The cDNA of the 5′ portion of LPA1 was amplified by PCR using a forward primer containing XhoI site and reverse primers containing the sequence encoding the mutated amino acids. The 3′ portion was also amplified with forward primers containing the mutated sequence and a reverse primer containing NotI and BglII sites. All cDNAs of the LPA1 variants were amplified using a mixture of the two PCR products together with the XhoI and NotI-containing primers. The resulting 1.0 KB products were cloned into a pCRII-Topo vector for sequence analysis. The cDNA of LPA1 mutants were cut out from pCRII-Topo by XhoI and NotI, and ligated into the XhoI/NotI sites of pCAGGS-HA (41), to generate pCAGGS-HA-LPA1 mutants.
(§2) B103 rat neuroblastoma cells that lack LPA response were cultured in DMEM containing 10% fetal bovine serum at 37 °C in a 5% CO2 atmosphere. […] After 30 min, 20 μl of the LPA species at defined concentration was added followed by an immediate recording of the fluorescence using the Functional Drug Screening System/μCell (Hamamatsu Photonics K.K., Hamamatsu city, Japan). The fluorescence intensity was described as fura-2 ratio (tested value/basal value) or fold induction. […]
(Calcium flux is commonly read through the fluorescence of an indicator in the cells.)

A further test concerns the target T2, wildtype LPA1 (Homo sapiens, UniProt Q92633).
T2 construct: expressed in transfected cells; host or cells: B103 rat neuroblastoma cells (lack LPA response), electroporated
Kind of test: Intracellular calcium mobilization in B103 cells expressing wild-type LPA1. The test is classed as cell-based.
Text: as §1, §2

A further test deals with LPA1. Details: method as in earlier work. The settings on record: acting on LPA1; ref 31 (Williams et al.); cited from earlier work.

T1 sequence (Q92633 whole entry K294A): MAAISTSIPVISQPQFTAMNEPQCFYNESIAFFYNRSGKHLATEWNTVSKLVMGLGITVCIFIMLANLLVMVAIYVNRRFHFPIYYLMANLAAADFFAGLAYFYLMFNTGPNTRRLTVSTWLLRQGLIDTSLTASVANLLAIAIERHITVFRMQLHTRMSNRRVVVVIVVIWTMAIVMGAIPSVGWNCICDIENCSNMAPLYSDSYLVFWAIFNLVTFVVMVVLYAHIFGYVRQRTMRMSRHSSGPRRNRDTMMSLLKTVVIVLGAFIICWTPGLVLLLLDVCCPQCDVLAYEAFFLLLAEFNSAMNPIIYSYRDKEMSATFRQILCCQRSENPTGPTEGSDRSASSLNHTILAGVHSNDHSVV
T2 sequence (Q92633 whole entry): as the sequence (Q92633 whole entry K294A) above, with A294K counted along it

As to `CCCCC/C=C\C/C=C\C/C=C\C/C=C\CCCC(=O)OC[C@@H](O)COP(=O)(O)O.N` [LPA 20:4, 1-arachidonoyl-2-hydroxy-sn-glycero-3-phosphate (ammonium salt)], the “intracellular calcium mobilization, Emax levels of the wildtype” value on LPA1 K7.36A mutant is listed as “≈ 60%”.

The term EC50 denotes the midpoint of the concentration-response curve. Regarding “alkyl glycerol phosphate 18:1 [AGP (18:1)]”, the “potency compared with LPA (18:1), dose-response curve” value on wildtype LPA1 is given as “right-shift in the dose-response curve”. Besides, in the test on LPA1, the concentration for a half-maximal effect (EC50) was 1500 nM.
